Assay results from article PMC7006816, “Human β-Defensin 2 Mediated Immune Modulation as Treatment for Experimental Colitis” (Frontiers in Immunology, 2020).
Where no end group is shown, it is not given here.

Key:
murine BM-DC's = experiment: Flow cytometry of BM-DCs (p-NF-κB, p-CREB, MHCII, CD86); assay type: cell-based, mouse; conditions: LPS + hBD2 100 μg/ml, flow cytometry, n = 6
Procedure: BM-DC's were generated using granulocyte-macrophage colony-stimulating factor (GM-CSF) and RPMI-1640 medium (Merck) supplemented with 10% fetal calf serum (FBS; Life Technologies), 2 mM glutamine (Thermo Fisher), 100 U/ml penicillin/streptomycin (Gibco), 50 μM 2-mercaptoethanol (Roth), 1 mM sodium pyruvate (Biochrome), and 1x non-essential amino acids (Biochrome) as previously described ([28]). Shortly, 2 × 10^6 bone marrow cells flushed from the tibias and femurs of C57BL/6 mice were seeded in dishes containing 200 U/ml GM-CSF. After 3 days extra medium containing GM-CSF was added to the cells and on day 6 half of the medium was replaced by fresh […] containing GM-CSF. After 7 or 8 days slightly attached cells were harvested. Female C57BL/6JolaHsd mice were purchased from Janvier (St. Berthevin Cedex, France). Animal experiments were performed in strict accordance with the German regulations of the Society for Laboratory Animal Science (GV-SOLAS) and the European Health Law of the Federation of Laboratory Animal Science Associations (FELASA). The protocol was approved by the Regierungspräsidium Tübingen (Anzeige 09.01.2014).
2 × 10^5 murine BM-DC's were seeded in 96-well round bottom plates and treated as described above. Cells were removed from the plate using Accutase (Sigma-Aldrich) and stained for 20 min at room temperature with Zombie Aqua (Biolegend) to exclude dead cells and extracellular antibodies against CD11c-APC (N418) (Miltenyi), MHCII-FITC (M5/114.15.2) (Miltenyi) and CD86-BV421 (GL-1) (Biolegend). For p-CREB staining cells were fixed and permeabilized with Foxp3 Staining Buffer Set (eBioscience) and stained with primary antibody phosphor-CREB mAb (Ser133; clone 87G3) (Cell Signaling) for 30 min in the dark at room temperature followed by secondary goat anti-rabbit IgG-DyLight™649 (Jackson ImmunoResearch) for 15 min at 4°C. To detect intracellular p-NF-κB BM-DCs were fixed with 2% paraformaldehyde (VWR) in PBS, permeabilized with 90% freezing methanol (Applichem) and stained with the primary antibodies to phosphor-NF-κB p65 (93H1) (Cell Signaling) for 60 min in the dark at room temperature followed by goat anti-rabbit IgG-PE-Cy7 (Santa Cruz Biotechnology) for 15 min at 4°C. PBS with 0,5% bovine serum albumin (Biomol) was used for all incubations and washing steps. At least 50,000 cells were acquired using a Canto-II flow cytometer (BD […]) with DIVA software (BD Biosciences) and were further analyzed using FlowJo 10.5 software (Tree Star).

human Mo-DC's = experiment: Cytokine production by human Mo-DC's; assay type: cell-based; conditions: hBD2 100 μg/ml or 10 μg/ml, 24 h, ELISA, n = 3
Procedure: Peripheral blood was drawn from healthy donors and diluted one to one in PBS. The mixture was stacked in a falcon tube on Biocoll separation solution (Biochrome) with a ratio of three parts blood PBS mixture to two parts Biocoll. For a density gradient centrifugation the falcon tubes were centrifuged at 2,000 rpm for 30 min at RT. The PBMC's were removed and washed twice with PBS. 1.5 × 10^6 cells were seeded per well in a tissue culture-treated 6-well plate in RPMI-1640 medium (Merck) supplemented with 10% fetal calf serum (FCS; Sigma-Aldrich), 2 mM L-glutamine (Biochrome), 100 U/ml penicillin/streptomycin (Gibco), 50 μM 2-mercaptoethanol (Fluka), 1 mM sodium pyruvate (Biochrome), and 1x non-essential amino acids (Biochrome) and incubated for 1 h at 37°C and 5% CO2 for monocyte adherence. Then the cells were washed with media and PBS to remove the non-adherent cells and were cultivated for 6 days with media additional supplemented with 50 ng IL-4 and 100 ng GM-CSF (Miltenyi). […]
2 × 10^5 murine BM-DC's or human Mo-DC's were seeded in 96-well round bottom plates. […] 24 h later supernatants were collected and TNF-α [Biolegend (BM-DC's); R&D (Mo-DC's)] was analyzed according to the manufacturer's instructions. IL-10, IL-12, and IL-1β (LEGENDplex Biolegend) was as well-analyzed according to the manufacturer's instructions.

human primary PBMC's = experiment: Stimulation of PBMCs of healthy volunteers with TLR ligands, cytokine release; assay type: cell-based; conditions: hBD2 100, 40, 10 or 1 μg/ml, 24 h, cytometric bead array
Procedure: Heparinized blood was diluted 1/1 v/v with RPMI (Gibco) and was subjected to Ficoll-Paque Plus (GE healthcare) density centrifugation within 2 h of drawing. Plasma was collected from the top from individual donors and was kept on ice until it was used at 2% in the culture medium (autologous culture medium). Isolated PBMC's were re-suspended in autologous culture medium and seeded in 96-well culture plates with 115.500 cells per well (Figure 1) or 200.000 cells per well (Figure 2) in a total of 200 μl. […] The supernatants were collected after incubation at 37°C for 24 h, and stored at −80°C until cytokine measurement.
The experiment in Figure 1 was performed with healthy volunteers, which were recruited under an approval from the Ethical Committee for Region Capital, Denmark. Interleukin 1β (IL-1β) and tumor necrosis factor alpha (TNF-α) (Figure 1) were quantified in supernatants by flow cytometry using a human inflammation cytometric bead array (CBA) according to manufacturer's instructions (BD) using a FACSarray flow cytometer. IL-1β, TNF- α, Interferon gamma (INF-y), Interleukin 12p70 (IL-12), and Interleukin 23 (IL-23) were analyzed using a human inflammation cytometric bead array (LegendPlex Biolegends) according to manufacturer's instructions.

For “human β-defensin 2 (GIGDPVTCLKSGAICHPVFCPRRYKQIGTCGLPGTKCCKKP; not fully specified; ends and bridges not checked) [hBD2, Recombinant human β-defensin 2 expressed in E. coli as his-tagged thioredoxin fusion, cleaved and purified, natural tertiary structure]”, the CREB phosphorylation (murine BM-DC's; 60 min) was “increase in CREB phosphorylation”, the NF-κB phosphorylation (murine BM-DC's; 60 min) was “reduced NF-κB phosphorylation” and the “Maturation status (MHCII and CD86)” value (murine BM-DC's) was “reduced maturation status”. The “TNF-α production in LPS-challenged human mo-DCs” value (human Mo-DC's) was “dose-dependently curbed TNF-α production”, the “Release of IL-1β” value (human primary PBMC's; LPS 20 pg/ml, n = 150–194) was “consistently mitigated release of both cytokines” and the “Release of TNF-α” value (human primary PBMC's; LPS 20 pg/ml, n = 150–194) was “consistently mitigated release of both cytokines”. For the same substance, the “Release of IL-1β” value (human primary PBMC's; Pam3CSK4 0.3 μg/ml) was “significantly reduced” and the “Release of TNF-α” value (human primary PBMC's; Pam3CSK4 0.3 μg/ml) was “significantly reduced”.
